Like-named read-outs stand apart in the source and are kept apart here.

Experiment [1] deals with TSU prostate cancer cell line. The experiment can be described thus: Cytotoxicity, SRB assay, TSU. The format is cell-based, human. As to conditions: read-out: IC50 TSU. The protocol: (§1) The SRB Assay was used to determine cell number during cytotoxocity experiments. The following protocol was used: • 1. […] Experimental cultures were cultured in 96-well microtiter plates (200 uL growth medium per well; 1,000-200,000 cells per well). • 3. Cultures were fixed with 50 uL 50% TCA (4° C.). (see cell fixation protocol for details). • 4. Fixed cells were stained with 50 uL 0.4% (wt/vol) SRB in 1% acetic acid for 10 minutes. • 5. SRB was removed and the cultures were quickly* rinsed 5 times with 1% acetic acid to remove unbound dye.** • 6. Cultures were air-dried overnight until there is no visible moisture. • 7. […] Absorbance was read at 540 nm. • * quickly performing rinsing process is to prevent desorption of protein-bound SRB • ** completely remove residual wash solution by sharply flicking plates over sink. Fixation of Cells Attached to the Plastic Substratum
(§2) The following protocol was used for fixing cells: • a. 50 uL of 50% TCA (4° C.) were gently layered on the top of growth medium in each well to make a final TCA concentration of 10%. • b. Cultures were incubated at 4° C. for 1 hour. • c. Cultures were washed 5 times with tap water to remove TCA, growth medium, low-molecular-weight metabolites, and serum protein. • d. Plates were air-dried until there was no visible moisture.
(Sulforhodamine B stains cellular protein and so reports cell mass.)

Experiment [2] deals with CV-1 control cell line. Kind of experiment: Cytotoxicity, SRB assay, CV-1 control. Format: cell-based, African green monkey. The protocol: (§3) The SRB Assay was used to determine cell number during cytotoxocity experiments. The following protocol was used: • 1. Cells were detached with 0.25% trypsin. • 2. Experimental cultures were cultured in 96-well microtiter plates (200 uL growth medium per well; 1,000-200,000 cells per well). • 3. Cultures were fixed with 50 uL 50% TCA (4° C.). (see cell fixation protocol for details). • 4. Fixed cells were stained with 50 uL 0.4% (wt/vol) SRB in 1% acetic acid for 10 minutes. • 5. SRB was removed and the cultures were quickly* rinsed 5 times with 1% acetic acid to remove unbound dye.** • 6. Cultures were air-dried overnight until there is no visible moisture. • 7. The cellular protein-bound SRB was dissolved with 200 uL unbuffered Tris base (10 mM, pH 10.5) for 30 minutes on a rocking platform shaker. • 8. Absorbance was read at 540 nm. • * quickly performing rinsing process is to prevent desorption of protein-bound SRB • ** completely remove residual wash solution by sharply flicking plates over sink. Fixation of Cells Attached to the Plastic Substratum
as §2

The subject of experiment [3] is PPC-1 prostate cancer cell line. Kind of experiment: Cytotoxicity, SRB assay, PPC-1. The format is cell-based, human. On the procedure: as §1, §2
Experiment [4] concerns DU 145 prostate cancer cell line. The experiment can be described thus: Cytotoxicity, SRB assay, DU 145. Format: cell-based, human. On the procedure:
as §1, §2

In experiment [5] the test system is PC-3 bone metastatic prostate cancer cell line. The experiment can be described thus: Cytotoxicity, SRB assay, PC-3. Format: cell-based, human. The protocol:
PPC-1, LNCaP, TSU, PC-3, and DU145 were grown in PRMI-1640 medium containing 2 mM L-glutamine supplemented with 10% fetal bovine serum (FBS). Cells were maintained in a 5% CO2/95% air humidified atomosphere at 37° C.
as §3, §2

Experiment [6] relates to AR-expressing LNCaP prostate cancer cell line. The experiment can be described thus: Cytotoxicity, SRB assay, LNCaP. The format is cell-based, human. The protocol: as §1, §2
Experiment [7] deals with HT-29 colorectal adenocarcinoma cell line. The experiment can be described thus: Cytotoxicity, SRB assay, HT-29. The format is cell-based, human. On the procedure: as §1, §2
The subject of experiment [8] is TCCSUP bladder cancer cell line. The experiment can be described thus: Cytotoxicity, SRB assay, TCCSUP. As to conditions: read-out: IC50 TCCSUP. Format: cell-based, human. The protocol:
as §1, §2

The test system of experiment [9] is LNCaP cells. Kind of experiment: Induction of apoptosis, LNCaP. Format: cell-based, human. The protocol:
(§4) The ability of DJ 1-31, DJ 1-29, S-NTBA and Compound V to induce apoptosis in different prostate cancer cell lines (DU 145, PC-3, TSU, PPC-1 and LNCaP), in other cancer cell lines (TCCSUP, HT-29 and MCF-7) and in a control cell line (CV-1) was determined and the results are shown in Table 6.

The subject of experiment [10] is TCCSUP cells. The experiment can be described thus: Induction of apoptosis, TCCSUP. Format: cell-based, human. On the procedure: as §4
For experiment [11], the system named is PPC-1 cells. Kind of experiment: Induction of apoptosis, PPC-1. The format is cell-based, human. On the procedure: as §4
Experiment [12] concerns MCF-7 cells. The experiment can be described thus: Induction of apoptosis, MCF-7. The format is cell-based. On the procedure: as §4
Experiment [13] concerns CV-1 cells. The experiment can be described thus: Induction of apoptosis, CV-1. Format: cell-based, African green monkey. The protocol:
as §4

Experiment [14] concerns DU 145 cells. The experiment can be described thus: Induction of apoptosis, DU 145. The format is cell-based, human. The protocol: as §4
For experiment [15], the system named is HT-29 cells. The experiment can be described thus: Induction of apoptosis, HT-29. Format: cell-based, human. The protocol: as §4
Experiment [16] concerns PC-3 cells. The experiment can be described thus: Induction of apoptosis, PC-3. Format: cell-based, human. On the procedure:
as §4

Experiment [17] deals with TSU cells. The experiment can be described thus: Induction of apoptosis, TSU. Format: cell-based, human. On the procedure: as §4
The mark [18] stands for this setting: Chlorocebus sabaeus, 24 h, read-out: IC50 CV-1 24 hr treatment.
Where [19] appears, read: Chlorocebus sabaeus, 96 h, read-out: IC50 CV-1 4 day treatment.
Setting [20] is: Chlorocebus sabaeus, read-out: IC50 CV-1 (Control).
[21] abbreviates: Homo sapiens, PPC-1, read-out: IC50 PPC-1.
[22] abbreviates: Homo sapiens, DU-145, read-out: IC50 DU145.
Where [23] appears, read: Homo sapiens, 24 h, read-out: IC50 PC-3 24 hr treatment.
Where [24] appears, read: Homo sapiens, 96 h, read-out: IC50 PC-3 4 day treatment.
[25] abbreviates: Homo sapiens, read-out: IC50 PC-3.
[26] abbreviates: Homo sapiens, LNCaP, 24 h, read-out: IC50 LNCaP 24 hr treatment.
[27] abbreviates: Homo sapiens, LNCaP, 144 h, read-out: IC50 LNCaP 6 day treatment.
Where [28] appears, read: Homo sapiens, LNCaP, read-out: IC50 LNCaP.
Where [29] appears, read: Homo sapiens, HT-29, read-out: IC50 HT-29.

As usually defined, the IC50 is the concentration needed to halve the response being measured. In the case of `O=c1[nH]cc(F)c(=O)[nH]1` [Compound 5-FU, reference compound], the IC50 in experiment [1] (Table 2A, Example 1) was 2.7 ± 0.6 µM; in experiment [2] (Table 2B, Example 1, read-out: IC50 CV-1 (Control)) it was 5.4 ± 0.3 µM; in experiment [3] (Table 2A, Example 1, read-out: IC50 PPC-1) it was 5.1 ± 0.5 µM; in experiment [4] (Table 2A, Example 1, read-out: IC50 DU145) it was 4.5 ± 0.3 µM; in experiment [5] (24 hr treatment, Example 3, read-out: IC50 PC-3 24 hr treatment), 20000 to 50000 nM; in [5] (4 day treatment, Example 3, read-out: IC50 PC-3 4 day treatment), 10900 nM. Besides, the IC50 is 10500 ± 600 nM in experiment [5] (Table 2A, Example 1, read-out: IC50 PC-3); 4.1 ± 0.6 µM in [6] (Table 2A, Example 1, read-out: IC50 LNCaP); 5.4 ± 1.1 µM in experiment [7] (Table 2B, Example 1, read-out: IC50 HT-29); 3.6 ± 0.7 µM in experiment [8] (Table 2B, Example 1).
Consider `C[C@](O)(CSc1ccc(NC(=O)CBr)cc1)C(=O)Nc1ccc(C#N)c(C(F)(F)F)c1` [R-CTF-T-BA-1], for which the IC50 stood at 0.6 ± 0.1 µM in [1] (Homo sapiens); 23.4 ± 1.6 µM in experiment [2] (setting [18]); 13.9 µM in experiment [2] (setting [19]); 10.8 ± 0.5 µM in experiment [2] (setting [20]); 1.3 ± 0.1 µM in [3] (setting [21]); 3.1 ± 0.1 µM in experiment [4] (setting [22]). In addition, the IC50 in experiment [5] (setting [23]) amounted to 22100 nM; in experiment [5] (setting [24]), 16800 nM; in experiment [5] (setting [25]), 2600 ± 100 nM; in experiment [6] (setting [26]) it was 11.2 µM; in [6] (setting [27]) it was 8.1 µM; in [6] (setting [28]), 3.2 ± 0.4 µM. Also, the IC50 was found to be 1.6 ± 0.03 µM in experiment [7] (setting [29]) and 3.8 ± 0.5 µM in [8] (Homo sapiens, TCC-SUP).
Regarding `C[C@](O)(CSc1ccc(NC(=O)CCl)cc1)C(=O)Nc1ccc(C#N)c(C(F)(F)F)c1` [R-CTF-T-CA-1], the IC50 in experiment [1] (Homo sapiens) is 1.5 ± 0.2 µM; in experiment [2] (setting [18]), 6.2 ± 0.2 µM; in experiment [2] (setting [19]), 4.2 µM; in experiment [2] (setting [20]), 2.7 ± 1 µM; in experiment [3] (setting [21]), 2.5 ± 0.1 µM; in [4] (setting [22]), 2.6 ± 0.1 µM. Also, the IC50 in experiment [5] (setting [23]) was determined as 5800 nM; in experiment [5] (setting [24]) it was 4300 nM; in experiment [5] (setting [25]), 6100 ± 500 nM; in experiment [6] (setting [26]), 3.5 µM; in [6] (setting [27]), 1.7 µM; in experiment [6] (setting [28]), 1.1 ± 0.2 µM. For the same compound, the half-maximal inhibitory concentration (IC50) in experiment [7] (setting [29]) worked out at 6.4 ± 0.5 µM; in [8] (Homo sapiens, TCC-SUP) it was 1.8 ± 0.2 µM.
Consider `C[C@@](O)(CBr)C(=O)Nc1ccc([N+](=O)[O-])c(C(F)(F)F)c1` [S-NTBA], for which the “Enrichment factor LNCaP” value in experiment [9] came out at 0.660. In experiment [10], the “Enrichment factor TCCSUP” value worked out at 0.118. Besides, the IC50 in [1] (Homo sapiens, Table 2A, Example 1) is 3.5 ± 0.2 µM; in experiment [2] (Chlorocebus sabaeus, 24 h, drug incubation time 1 day, Example 4, read-out: IC50 CV-1) it was greater than 50 µM; in [2] (Chlorocebus sabaeus, 96 h, 4 day treatment, Example 2, read-out: IC50 CV-1 4 day treatment), 4.9 µM; in [2] (Chlorocebus sabaeus, 96 h, drug incubation time 4 day, Example 4, read-out: IC50 CV-1), 38.6 ± 3.6 µM; in experiment [2] (Chlorocebus sabaeus, 24 hr treatment, Example 2, read-out: IC50 CV-1 24 hr treatment) it was 48.2 ± 10.9 µM; in [2] (Chlorocebus sabaeus, Table 2B, Example 1, read-out: IC50 CV-1 (Control)) it was 12.7 ± 0.3 µM. Further, the IC50 in experiment [3] (Homo sapiens, PPC-1, Table 2A, Example 1, read-out: IC50 PPC-1) was 2.2 ± 0.2 µM; in experiment [4] (Homo sapiens, DU-145, Table 2A, Example 1, read-out: IC50 DU145), 4.7 ± 0.3 µM; in experiment [5] (Homo sapiens, 96 h, 4 day treatment, Example 3, read-out: IC50 PC-3 4 day treatment), 18000 nM; in [5] (Homo sapiens, 24 hr treatment, Example 3, read-out: IC50 PC-3 24 hr treatment) it was greater than 50000 nM; in experiment [5] (Homo sapiens, Table 2A, Example 1, read-out: IC50 PC-3), 3100 ± 600 nM; in experiment [6] (setting [26]), 4.4 µM. Further, the IC50 in [6] (setting [27]) is 2.1 µM; in experiment [6] (setting [28]), 1.4 ± 0.2 µM; in [7] (Homo sapiens, HT-29, Table 2B, Example 1, read-out: IC50 HT-29), 6.3 ± 0.3 µM; in experiment [8] (Homo sapiens, TCC-SUP, Table 2B, Example 1) it was 2.4 ± 0.3 µM. The “Enrichment factor PPC-1” value in [11] was 0.697. Besides, in experiment [12], the “Enrichment factor MCF-7” value stood at 2.012. Besides, the “Enrichment factor CV-1” value in [13] is reported as 0.393. For the same compound, the “Enrichment factor DU 145” value in [14] stood at 1.929. In experiment [15], the “Enrichment factor HT-29” value is given as 1.538. Moreover, the “Enrichment factor PC-3” value in experiment [16] is on record as 0.750. The “Enrichment factor TSU” value in experiment [17] was 0.705.
As for `CC(=O)O[C@H]1C(=O)[C@@]2(C)[C@H]([C@H](OC(=O)c3ccccc3)[C@]3(O)C[C@H](OC(=O)[C@H](O)[C@@H](NC(=O)c4ccccc4)c4ccccc4)C(C)=C1C3(C)C)[C@]1(OC(C)=O)CO[C@@H]1C[C@@H]2O` [Taxol, reference compound], the half-inhibitory concentration (IC50) in experiment [1] (Homo sapiens) came to 0.0024 ± 0.0008 µM; in [3] (setting [21]), 0.0027 ± 0.0003 µM; in experiment [4] (setting [22]) it was 0.0027 ± 0.0003 µM; in [5] (Homo sapiens, Table 2A, Taxol in nM, read-out: IC50 PC-3) it was 6.3 ± 0.6 nM; in [6] (setting [28]), 0.0019 ± 0.0003 µM; in [7] (setting [29]), 0.0066 ± 0.0006 µM. In experiment [8] (Homo sapiens, TCC-SUP), the IC50 stood at 0.0043 ± 0.0006 µM.

(Values after patent publication US20060035966A1, “Irreversible selective androgen receptor modulators and methods of use thereof” (priority 2002, published 2006).)
